Measurements from patent publication US20250235454A1, “XOPHOS INHIBITORS FOR USE IN THE TREATMENT OF B-CELL LYMPHOMA” (CENTRE NATIONAL DE LA RECHERCHE SCIENTIFIQUE, priority 2022, published 2025).

Tests used:
[1] = system: human B cell lymphoma line (RL line, CVCL_1660); assay: Seahorse analysis of oxygen consumption rate (OCR); assay type: cell-based; conditions: for inhibition of OCR: RL cells; for effect on mitochondrial respiration: increasing concentrations 1.2-10 μM, compared to rotenone or IACS-010759
Protocol: The analyser known as “Seahorse” allows evaluation mitochondrial respiration in real time by measuring Oxygen Consumption Rate (OCR). The experiments have been carried out according to the supplier's recommendations (“Agilent_Seahorse XFe96”). To achieve this, 150,000 cells per well of a human B cell lymphoma line (“RL line, CVCL_1660”) have been seeded in 180 μL of Agilent_Seahorse XF RPMI medium (supplemented with pyruvate and glucose) on a dedicated Agilent_Seahorse 96-well plate, pre-treated with a solution of CellTak according to the supplier's recommendations (Corning). After 30 min incubation in a CO2-free oven, the plate has been analysed with the “Seahorse” using a protocol allowing injection (indicated by arrows in FIG. 1) of increasing amounts of compound to obtain a final cumulative concentration of 1.2 μM, 2.5 μM, 5 μM and 10 μM, followed each time by an OCR reading (in pmol/min) for 10 min. Data normalisation has been carried out by cell counting, using a device known as the “Cytation 1/5 Cell Imaging Multi-Mode reader” (BioTek Instruments, Inc) coupled to the “Seahorse”.
A control is used (DMSO, curve with solid squares) in each figure and corresponds to the medium studied without addition of compound (addition only of the DMSO diluent from the molecule stocks). […] In addition, injection of increasing concentrations of compounds in accordance with the invention induces progressive inhibition of OCR, in a similar manner and in stages for compounds (Ib) and (Ic), and progressively for compound (Ia).

[2] = system: RD136, CVCL_1649 rhabdomyosarcoma-like sarcoma line; assay: Effect on cell growth, paediatric sarcoma line RD136 (CellTiterFluor); assay type: cell-based, human; conditions: 10 μM, 48 h, HLPM medium, FIG. 5a
Protocol: (§1) Human tumour cells from two paediatric rhabdomyosarcoma-like sarcoma lines (“RD136, CVCL_1649”, FIG. 5a and “RH3O, CVCL_0041”, FIG. 5b) have been seeded in a 96-well plate in the presence of a concentration of 10 μM of compound, in a volume of 100 μL of “Gibco Human Like Plasma Medium” (Gibco HPLM_Thermo Fisher Scientific). The effect of compounds (Ia), (Ib) and (Ic) has been compared with that of the inhibitors IACS-010759 (IACS) and IM156 (metformin analogue) currently in clinical trials, Rotenone (ROT) and the apoptosis inducer staurosporine (STS). After 48 hours of treatment, the effect on the number of living cells has been evaluated using the “CellTiterFluor” kit from Promega, identically to FIG. 2b.

[3] = system: RH30, CVCL_0041 rhabdomyosarcoma sarcoma line; assay: Effect on cell growth, paediatric sarcoma line RH30 (CellTiterFluor); assay type: cell-based, human; conditions: 48 h, HLPM medium
Protocol: as §1
Human tumour cells from the paediatric rhabdomyosarcoma sarcoma line (“RH30, CVCL_0041”) have been seeded in a 96-well plate in the presence of a 10 μM or 25 μM concentration of compound, in a 100 μL volume of “Gibco Human Like Plasma Medium” (Gibco HPLM_Thermo Fisher Scientific). After 48 h of treatment, the effect of compounds (Ia), (Ie) and (If) on cell growth has been evaluated using the Promega “CellTiterFluor” kit as in FIG. 2b.

[4] = system: human B cell lymphoma cell line (Karpas422, CVCL_1325); assay: Effect on cell growth, B cell lymphoma line Karpas422 (live cell count by flow cytometry or CellTiterFluor); assay type: cell-based; conditions: 10 μM, 48 h, RPMI and HLPM medium, FIG. 2
Protocol: Cells from a human B cell lymphoma cell line (“Karpas422, CVCL_1325”) have been seeded at a density of 100,000 cells per well, in a 96-well plate in the presence of a 10 μM concentration of compound, in a volume of 100 μL of medium. After 48 h of treatment, analyses of the effect on cell growth have been conducted, either by counting live cells using flow cytometry (FIG. 2a), or using a biochemical fluorescence detection kit for live cells (FIG. 2b).
In conventional “Gibco RPMI1640/10°/0 SVF” medium, the number of living cells has been determined after double AnnexinV/PI labelling, and analysis using the flow cytometer known as “ATTUNE” (Thermo Fisher Scientific). In “Gibco Human Like Plasma Medium”, the number of live cells has been evaluated using the “CellTiterFluor” kit and after measurement of relative fluorescence units (RFU) according to the supplier's recommendations (Promega). The term DMSO in FIG. 2 corresponds to the control, i.e. identical medium with no added compound.

[5] = system: human B cell lymphoma cell line (RL, CVCL_1660); assay: Effect on cell growth, B cell lymphoma line RL (live cell count by flow cytometry); assay type: cell-based; conditions: 5 μM or 10 μM, 48 h, RPMI medium, FIG. 6
Protocol: Cells from the human B cell lymphoma cell line (“RL, CVCL_1660”), have been seeded at a density of 100,000 cells per well, in a 96-well plate in the presence of a concentration of 5 μM or 10 μM of compound, in a volume of 100 μL of RPMI medium. After 48 h of treatment, analyses of the effect on cell growth have been conducted by counting live cells using flow cytometry, as in FIG. 2a.

[6] = system: human tumour cells of a B cell lymphoma line (SUDHL-4, CVCL_0539); assay: In ovo xenograft model on the chorioallantoic membrane (CAM) of the chicken embryo; assay type: in vivo
From the text: Preclinical evaluation analyses of the anti-tumour efficacy of compound (Ia) have been carried out using the xenograft model on the chorioallantoic membrane (CAM) of the chicken embryo. […] Treatments have been performed on days E11, E13, E15 and E17. At day E18, the upper CAM portions containing tumours have been removed and weighed, and the lower CAM fragments have been used to evaluate the presence of human cells indicative of metastases by RT-gPCR (polymerase chain reaction from an RNA sample). 0.0097 mg/kg Doxorubicin (DOXO) has been used as a positive control for treatment efficacy, compound (Ia) has been used at 3 different doses: 0.05 mg/kg, [2]: 0.15 mg/kg, and [3]: 0.45 mg/kg, and “IACS-010759” has been used at 2 different doses: 0.05 mg/kg, and [2]: 0.45 mg/kg. The negative control (denoted DMSO) represents treatment with the DMSO molecule diluent.

[7] = system: 31 human B and T cell lymphoma lines; assay: AnnexinV/PI cytometry, % apoptotic cells in 31 lymphoma lines; assay type: cell-based; conditions: compared with IACS-010759, FIG. 3
From the text: Analyses of the effect on cell growth of compound (Ia) in accordance with the invention in comparison with compound “[…]” (denoted IACS) not in accordance with the invention have been conducted on a wide series of 31 human B and T cell lymphoma lines, after AnnexinV/PI labelling and analysis with the “ATTUNE” cytometer (Thermo Fisher Scientific). In addition to the number of living cells represented in FIG. 2a, this technology enables the % of cells undergoing apoptosis to be evaluated. The results have been represented in FIG. 3 in the form of a “HeatMap” with a black and white gradient, black representing the highest % of apoptotic cells.

[8] = system: human B cell lymphoma cell line (Karpas422, CVCL_1325); assay: IC50 on cell growth, Karpas422 (CellTiter-Fluor Cell Viability Assay); assay type: cell-based; conditions: KARPAS-422, Karpas422, RPMI 1640 (11 mM glucose) with 10% serum, 48 h
Protocol: These experiments have been performed using cells from a human B cell lymphoma cell line (“Karpas422, CVCL_1325”) which have been seeded in “RPMI 1640” medium (11 mM glucose) supplemented with 10% serum, in the presence of increasing concentrations of compounds.
After 48 h of treatment, analyses of the effect on cell growth have been conducted, using the “CellTiter-Fluor Cell Viability Assay” (Promega) live cell detection kit, as in FIG. 2b, and following the supplier's instructions.

[9] = 10 μM cumulative concentration, FIG. 1b
[10] = dose 0.15 mg/kg (compound Ia [2])
[11] = dose 0.45 mg/kg (compound Ia [3], IACS [2])

SMILES	inhibition of OCR [1, 9]	effect on mitochondrial respiration [1]	effect on cell growth (number of living cells) [2]	effect on cell growth (number of living cells) ([3]; 10 μM, FIG. 5b)	effect on cell growth (number of live tumour cells) [4]	effect on cell growth (number of living cells) ([3]; 10 μM or 25 μM, FIG. 7)	other results
Cl.Cl.c1cnc(N2CCN(CCCCCCCCCCCCN3CCN(c4ncccn4)CC3)CC2)nc1 [Compound Ib, 2-[4-[12-(4-pyrimidin-2-ylpiperazin-1-yl)dodecyl]piperazin-1-yl]pyrimidine dihydrochloride]	Virtually complete inhibition of OCR	moderate and progressive effect	inhibits cell growth	inhibits cell growth	inhibit cell growth		
c1cnc(NCCCCCCCCCCCCNc2ncccn2)nc1 [Compound Id]			inhibits cell growth	inhibits cell growth			effect on cell growth [5]: inhibitory effect on cell growth
Cl.Cl.c1ccc(N2CCN(CCCCCCCN3CCN(c4ccccn4)CC3)CC2)nc1 [Compound If]						inhibit cell growth	
c1cnc(NCCCCCCCCCCCCNC2=NCCN2)nc1 [Compound Ia, N′-(4,5-dihydro-1H-imidazol-2-yl)-N-pyrimidin-2-yl-dodecane-1,12-diamine]	Virtually complete inhibition of OCR	moderate and progressive effect			inhibit cell growth	inhibit cell growth	effect on cell growth [5]: inhibitory effect on cell growth; reduction in primary tumour volume [6, 10]: 73%; reduction in the relative number of metastases [6, 10]: 70%; reduction in primary tumour volume [6, 11]: 70%; reduction in the relative number of metastases [6, 11]: 72%; reduction in primary tumour volume ([6]; dose [1] 0.05 mg/kg): 48%; reduction in the relative number of metastases ([6]; dose [1] 0.05 mg/kg): 45%; toxicity (% of apoptotic cells) [7]: increased with respect to that of “IACS-010759” for a sub-group of 8 lines; IC50 [8]: 1.5 µM
Cl.Cl.c1ccc(N2CCN(CCCCCCCCCCCCN3CCN(c4ccccn4)CC3)CC2)nc1 [Compound Ic, 1-(2-pyridyl)-4-[12-[4-(2-pyridyl)piperazin-1-yl]dodecyl]piperazine dihydrochloride]	Virtually complete inhibition of OCR	moderate and progressive effect	inhibits cell growth	inhibits cell growth	inhibit cell growth		
N/C(=N/c1cccc2ccccc12)SCCCCCCS/C(N)=N\c1cccc2ccccc12 [reference compound]							IC50 [8]: 15.1 µM
COc1cccc2c1C(=O)c1c(O)c3c(c(O)c1C2=O)C[C@@](O)(C(=O)CO)C[C@@H]3O[C@H]1C[C@H](N)[C@H](O)[C@H](C)O1 [doxorubicin, Doxorubicin, reference compound]							regression in the number of metastases ([6]; 0.0097 mg/kg, lower CAM, RT-qPCR): 99%; reduction in primary tumour volume ([6]; 0.0097 mg/kg, treatments E11, E13, E15, E17, read at E18): 90%
c1cnc(N2CCN(CCCCCCCN3CCN(c4ncccn4)CC3)CC2)nc1 [Compound Ie]						inhibit cell growth	
C=C(C)[C@H]1Cc2c(ccc3c2O[C@@H]2COc4cc(OC)c(OC)cc4[C@@H]2C3=O)O1 [Rotenone, reference compound]							inhibition of OCR ([1]; 1.2 μM, FIG. 1a): instantaneous and almost complete inhibition of OCR
